This passage reports IC50 results from patent US11136311B2, “Heteroaromatic derivatives as NIK inhibitors” (Janssen Pharmaceutica NV, priority 2016, dated 2021).

One assay has as its system JJN-3 cells. Kind of assay: Antiproliferative activity on JJN-3 (NIK translocated) multiple myeloma cells (CellTiter-Glo). Type of assay: cell-based, human. Conditions: JJN-3 (NIK translocated) cells, 96 hr, averaged values, read-out: JJN-3 Proliferation inhibition (IC50 (nM)). How it is done: (§1) Determination of antiproliferative activity on JJN-3 (NIK translocated) and KMS12-BM (NIK WT) multiple myeloma cells
(§2) All compounds tested were dissolved in DMSO and further dilutions were made in culture medium. Final DMSO concentration was 0.3% (v/v) in cell proliferation assays. Viability was assessed using CellTiter-Glo cell viability assay kit (Promega). The human JJN-3 and KMS12-BM cells (DSMZ) were cultured in RPMI 1640 medium supplemented with 2 mM L-glutamine, and 10% fetal calf serum (PAA). Cells were routinely kept as suspension cells at 37° C. in a humidified 5% CO2 atmosphere. Cells were passaged at a seeding density of 0.2×10^6/ml twice a week. Cells were seeded in black tissue culture treated 96-well plates (Perkin Elmer). Densities used for plating ranged from 15000 (JJN3) to 20000 (KMS12BM) cells per well in a total volume of 135 μl medium. Drugs and/or solvents were added (15 μl) to a final volume of 150 μl. Following 96 hr of treatment, plates were removed from the incubator and allowed to equilibrate to room temperature for approx 10 min. 75 μl CellTiter-Glo reagent was added to each well that was then covered (Perkin Elmer Topseal) and shaken on plate shaker for 10 min. Luminescence was measured on a HTS Topcount (Perkin Elmer). Within an experiment, the results for each treatment were the mean of 2 replicate wells. For initial screening purposes, compounds were tested using a 9 point dilution curve (serial 1:3 dilutions). For each experiment, controls (containing no drug) and a blank incubation (containing cells read at the time of compound addition) were run in parallel. The blank value was subtracted from all control and sample values. For each sample, the mean value for cell growth (in relative light units) was expressed as a percentage of the mean value for cell growth of the control.
On the technique in general: Cellular ATP, detected with luciferase, serves as a proxy for viable cell number.

Assay [1] concerns the target recombinant human NF-kappaB-inducing kinase (NIK/MAP3K14) (Homo sapiens (Human), UniProt Q99558). Kind of assay: Inhibition of auto-phosphorylation of recombinant human NIK/MAP3K14 activity (AlphaScreen). Type of assay: biochemical. Conditions: averaged values over all measurements on all batches. How it is done: Inhibition of auto-phosphorylation of recombinant human NF-kappaB-inducing kinase (NIK/MAP3K14) activity (AlphaScreen®)
NIK/MAP3K14 auto-phosphorylation activity was measured using the AlphaScreen® (αscreen) format (Perkin Elmer). All compounds tested were dissolved in dimethyl sulfoxide (DMSO) and further dilutions were made in assay buffer. Final DMSO concentration was 1% (v/v) in assays. Assay buffer was 50 mM Tris pH 7.5 containing 1 mM EGTA (ethylene glycol tetraacetic acid), 1 mM DTT (dithiothreitol), 0.1 mM Na3VO4, 5 mM MgCl2, 0.01% Tween® 20. Assays were carried out in 384 well Alphaplates (Perkin Elmer). Incubations consisted of compound, 25 microM Adenosine-5′-triphosphate (ATP), and 0.2 nM NIK/MAP3K14. Incubations were initiated by addition of GST-tagged NIK/MAP3K14 enzyme, carried out for 1 h at 25° C. and terminated by addition of stop buffer containing anti-phospho-IKK Ser176/180 antibody. Protein A Acceptor and Glutathione-Donor beads were added before reading using an EnVision® Multilabel Plate Reader (Perkin Elmer). Signal obtained in the wells containing blank samples was subtracted from all other wells and IC50's were determined by fitting a sigmoidal curve to % inhibition of control versus Log10 compound concentration.

The subject of another assay is KMS12-BM cells. Kind of assay: Antiproliferative activity on KMS12-BM (NIK WT) multiple myeloma cells (CellTiter-Glo). It counts as cell-based, human. Conditions: KMS12-BM (NIK WT) cells, 96 hr, averaged values, read-out: KMS-12 Proliferation inhibition (IC50 (nM)). How it is done: as §1, §2

Like-named read-outs stand apart in the source and are kept apart here.

recombinant human NF-kappaB-inducing kinase (NIK/MAP3K14), sequence (Q99558 whole entry): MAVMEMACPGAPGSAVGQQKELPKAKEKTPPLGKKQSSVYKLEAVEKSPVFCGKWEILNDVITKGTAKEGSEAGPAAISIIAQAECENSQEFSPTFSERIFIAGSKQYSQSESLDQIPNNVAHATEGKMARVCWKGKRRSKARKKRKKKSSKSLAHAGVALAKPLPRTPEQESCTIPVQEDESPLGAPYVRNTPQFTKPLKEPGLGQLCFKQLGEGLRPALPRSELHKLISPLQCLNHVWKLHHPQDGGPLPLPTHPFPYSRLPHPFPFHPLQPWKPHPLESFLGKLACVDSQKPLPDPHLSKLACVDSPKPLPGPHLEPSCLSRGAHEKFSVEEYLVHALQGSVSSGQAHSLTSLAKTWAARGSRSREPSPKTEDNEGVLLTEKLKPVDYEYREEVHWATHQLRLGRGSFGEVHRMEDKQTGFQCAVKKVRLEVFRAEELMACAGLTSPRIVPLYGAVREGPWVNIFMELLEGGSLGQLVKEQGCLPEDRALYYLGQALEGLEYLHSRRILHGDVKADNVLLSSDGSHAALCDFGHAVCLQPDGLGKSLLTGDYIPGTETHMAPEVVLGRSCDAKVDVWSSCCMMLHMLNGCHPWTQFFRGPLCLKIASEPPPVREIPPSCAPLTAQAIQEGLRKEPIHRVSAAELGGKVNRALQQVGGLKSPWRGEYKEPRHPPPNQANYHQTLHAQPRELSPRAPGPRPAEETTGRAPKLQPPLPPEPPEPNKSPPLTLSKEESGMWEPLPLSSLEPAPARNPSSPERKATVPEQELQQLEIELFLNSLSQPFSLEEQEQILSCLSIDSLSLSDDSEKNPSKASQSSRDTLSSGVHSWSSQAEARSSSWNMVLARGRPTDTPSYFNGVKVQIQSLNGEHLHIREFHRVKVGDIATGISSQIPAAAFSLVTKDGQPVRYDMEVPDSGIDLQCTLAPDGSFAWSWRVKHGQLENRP

With `CNC(=O)c1cc(Nc2nccc(-c3cc(C#N)c4c(c3)[C@@](C)(CO)CN4)n2)n(C)n1` [Compound 56], the IC50 with JJN-3 cells (Homo sapiens, JJN-3, 96 h) was approximately 363 nM; in assay [1], 3.1 nM; in the assay on KMS12-BM cells (Homo sapiens, KMS-12-BM, 96 h), approximately 1410 nM.
On the same counts, the results for `Cn1nc(C2(C)COC2)cc1Nc1nccc(-c2cc(C#N)c3c(c2)C(C)(CO)CN3)n1` (stereo not drawn) [Compound 5] are 708 nM, 5.4 nM and more than 10000 nM.
On the same counts, the results for `Cc1nn(C2CCOCC2)cc1Nc1nccc(-c2cc(C#N)c3c(c2)[C@@](C)(CO)CN3)n1` [Compound 74] are 324 nM, 3 nM and approximately 3890 nM.
Consider `Cn1cc(Nc2nccc(-c3cc(C#N)c4c(c3)[C@@](C)(CO)CN4)n2)c(CN2CCCC2=O)n1` [Compound 90], for which the IC50 in the assay on JJN-3 cells (Homo sapiens, JJN-3, 96 h) came out at 1550 nM; in assay [1], 5.7 nM; with KMS12-BM cells (Homo sapiens, KMS-12-BM, 96 h), 5130 nM.
Consider `Cc1cc(Nc2nccc(-c3cc(C#N)c4c(c3)[C@@](C)(CO)CN4)n2)n(CC(=O)N(C2CC2)C2CC2)n1` [Compound 80], for which the IC50 in the assay on JJN-3 cells (Homo sapiens, JJN-3, 96 h) is 1100 nM; in assay [1] it was 3.9 nM; with KMS12-BM cells (Homo sapiens, KMS-12-BM, 96 h), 6170 nM.
On to `COC(C)(C)CCn1nc(C)cc1Nc1nccc(-c2cc(C#N)c3c(c2)[C@@](C)(CO)CN3)n1` [Compound 59], for which the IC50 with JJN-3 cells (Homo sapiens, JJN-3, 96 h) worked out at 68 nM; in assay [1], 5 nM; in the assay with KMS12-BM cells (Homo sapiens, KMS-12-BM, 96 h), 1950 nM.
Consider `Cc1cc(Nc2nccc(-c3cc(C#N)c4c(c3)[C@@](C)(CO)CN4)n2)n(CC2CCCO2)n1` (single isomer, unassigned) [Compound 51], for which the IC50 in the assay with JJN-3 cells (Homo sapiens, JJN-3, 96 h) was approximately 59 nM; in assay [1] it was 4.1 nM; with KMS12-BM cells, approximately 1900 nM.
With `COC(C)(C)CCn1nc(Nc2nccc(-c3cc(C#N)c4c(c3)[C@@](C)(CO)CN4)n2)cc1C` [Compound 58], the IC50 in the assay on JJN-3 cells (Homo sapiens, JJN-3, 96 h) stood at 69 nM; in assay [1], 1.5 nM; in the assay with KMS12-BM cells (Homo sapiens, KMS-12-BM, 96 h) it was 468 nM.
On the same counts, the results for `C[C@]1(CO)CNc2c(C#N)cc(-c3ccnc(Nc4ccn(CC5CC5)n4)n3)cc21` [Compound 40] are 295 nM, 2.2 nM and 562 nM.
On to `Cc1cc(Nc2nccc(-c3cc(C#N)c4c(c3)[C@@](C)(CO)CN4)n2)n(C2CCN(C)CC2)n1` [Compound 62], for which the IC50 was 204 nM with JJN-3 cells (Homo sapiens, JJN-3, 96 h); 23 nM in assay [1]; 269 nM in the assay with KMS12-BM cells (Homo sapiens, KMS-12-BM, 96 h).
`Cc1cc(Nc2nccc(-c3cc(C#N)c4c(c3)[C@@](C)(CO)CN4)n2)n(CC2CCCCO2)n1` (single isomer, unassigned) [Compound 68]: the IC50 is 38 nM with JJN-3 cells; 5.3 nM in assay [1]; more than 10000 nM in the assay on KMS12-BM cells (Homo sapiens, KMS-12-BM, 96 h).
On to `CNC(=O)c1nn(C)cc1Nc1nccc(-c2cc(C#N)c3c(c2)[C@@](C)(CO)CN3)n1` [Compound 53], for which the IC50 was 851 nM in the assay with JJN-3 cells (Homo sapiens, JJN-3, 96 h); 3.5 nM in assay [1]; approximately 5010 nM in the assay on KMS12-BM cells (Homo sapiens, KMS-12-BM, 96 h).
Turning to `Cc1cc(Nc2nccc(-c3cc(C#N)c4c(c3)[C@@](C)(CO)CN4)n2)n(CC2CCCO2)n1` (single isomer, unassigned) [Compound 52], the IC50 in the assay on JJN-3 cells was 115 nM; in assay [1] it was 6.9 nM; in the assay on KMS12-BM cells, more than 10000 nM.
For the compound `CC(C)n1nccc1Nc1nccc(-c2cc(C#N)c3c(c2)C(C)(CO)CN3)n1` (stereo not drawn) [Compound 24], the IC50 with JJN-3 cells (Homo sapiens, JJN-3, 96 h) is 646 nM; in assay [1] it was 10 nM; with KMS12-BM cells (Homo sapiens, KMS-12-BM, 96 h), more than 10000 nM.
On the same counts, the results for `Cc1nscc1Nc1nccc(-c2cc(C#N)c3c(c2)[C@@](C)(CO)CN3)n1` [Compound 146] are 102 nM, 1.3 nM and 589 nM.
On the same counts, the results for `CN(C)C(=O)c1cc(Nc2nccc(-c3cc(C#N)c4c(c3)[C@@](C)(CO)CN4)n2)nn1C` [Compound 45] are 1320 nM, 7.6 nM and 4170 nM.
On the same counts, the results for `CN1CCC(n2cc(Nc3nccc(-c4cc(C#N)c5c(c4)C(C)(CO)CN5)n3)cn2)CC1` (stereo not drawn) [Compound 12] are approximately 45 nM, 3.6 nM and approximately 214 nM.
As to `COCCn1nc(C)cc1Nc1nccc(-c2cc(C#N)c3c(c2)[C@](C)(CO)CN3)n1` [Compound 57], the IC50 in the assay with JJN-3 cells (Homo sapiens, JJN-3, 96 h) was approximately 933 nM; in assay [1] it was 28 nM; with KMS12-BM cells (Homo sapiens, KMS-12-BM, 96 h), more than 10000 nM.
Consider `Cn1nc(Nc2nccc(-c3cc(C#N)c4c(c3)[C@@](C)(CO)CN4)n2)cc1Cl` [Compound 43], for which the IC50 in the assay with JJN-3 cells (Homo sapiens, JJN-3, 96 h) amounted to 234 nM; in assay [1], 2.6 nM; with KMS12-BM cells (Homo sapiens, KMS-12-BM, 96 h), 933 nM.
As to `Cn1nc(Nc2nccc(-c3cc(C#N)c4c(c3)C(C)(CO)CN4)n2)cc1C1(C)COC1` (stereo not drawn) [Compound 26], the IC50 was 457 nM with JJN-3 cells (Homo sapiens, JJN-3, 96 h); 10 nM in assay [1]; approximately 2950 nM in the assay with KMS12-BM cells (Homo sapiens, KMS-12-BM, 96 h).
Take `Cn1ccc(Nc2ncnc(-c3cc(C#N)c4c(c3)C(C)(CO)CN4)n2)n1` (stereo not drawn) [Compound 216]: the IC50 was 537 nM in the assay on JJN-3 cells (Homo sapiens, JJN-3, 96 h); 7.8 nM in assay [1]; 2630 nM in the assay with KMS12-BM cells (Homo sapiens, KMS-12-BM, 96 h).
On the same counts, the results for `CC(C)(c1cc(Nc2nccc(-c3cc(C#N)c4c(c3)[C@@](C)(CO)CN4)n2)[nH]n1)S(C)(=O)=O` [Compound 65] are approximately 1410 nM, 10 nM and more than 10000 nM.
For the compound `Cc1c(Nc2nccc(-c3cc(C#N)c4c(c3)C(C)(CO)CN4)n2)cnn1C` (stereo not drawn) [Compound 36], the IC50 with JJN-3 cells (Homo sapiens, JJN-3, 96 h) turned out to be 174 nM; in assay [1] it was 2.6 nM; in the assay on KMS12-BM cells (Homo sapiens, KMS-12-BM, 96 h), 7590 nM.
Regarding `CN(CCO)C[C@]1(C)CNc2c(C#N)cc(-c3ccnc(Nc4ccn(C)n4)n3)cc21` [Compound 173], the IC50 was 6030 nM in the assay with JJN-3 cells (Homo sapiens, JJN-3, 96 h); 162 nM in assay [1]; approximately 6310 nM in the assay with KMS12-BM cells (Homo sapiens, KMS-12-BM, 96 h).
On the same counts, the results for `Cn1nc(C2CCCCC2)cc1Nc1nccc(-c2cc(C#N)c3c(c2)C(C)(CO)CN3)n1` (stereo not drawn) [Compound 6] are 347 nM, 7.6 nM and more than 10000 nM.
On the same counts, the results for `COCCCn1nccc1Nc1nccc(-c2cc(C#N)c3c(c2)C(C)(CO)CN3)n1` (stereo not drawn) [Compound 27] are 389 nM, 13 nM and approximately 4570 nM.
On the same counts, the results for `Cn1nc(C(=O)N2CCC(F)(F)CC2)cc1Nc1nccc(-c2cc(C#N)c3c(c2)C(C)(CO)CN3)n1` (stereo not drawn) [Compound 28] are 2570 nM, approximately 17 nM and more than 10000 nM.
`COCCCn1nc(C)cc1Nc1nccc(-c2cc(C#N)c3c(c2)[C@](C)(CO)CN3)n1` [Compound 54]: the IC50 is 525 nM with JJN-3 cells (Homo sapiens, JJN-3, 96 h); 11 nM in assay [1]; more than 10000 nM in the assay on KMS12-BM cells (Homo sapiens, KMS-12-BM, 96 h).
On the same counts, the results for `Cc1nc(Nc2nccc(-c3cc(C#N)c4c(c3)[C@@](C)(CO)CN4)n2)sc1C` [Compound 148] are 93 nM, 0.8 nM and 282 nM.
Take `CN1CCC(n2nccc2Nc2nccc(-c3cc(C#N)c4c(c3)[C@@](C)(CO)CN4)n2)CC1` [Compound 38]: the IC50 in the assay with JJN-3 cells (Homo sapiens, JJN-3, 96 h) was 3980 nM; in assay [1], 47 nM; in the assay with KMS12-BM cells (Homo sapiens, KMS-12-BM, 96 h) it was 3890 nM.
Consider `Cn1ccc(Nc2nccc(-c3cc(C#N)c4c(c3)[C@@](C)(CO)CN4)n2)n1` [Compound 19], for which the IC50 with JJN-3 cells (Homo sapiens, JJN-3, 96 h) is 163 nM; in assay [1], 2.2 nM; in the assay with KMS12-BM cells (Homo sapiens, KMS-12-BM, 96 h), 2720 nM.
As to `Cc1nnc(Nc2nccc(-c3cc(C#N)c4c(c3)C(C)(CO)CN4)n2)o1` (stereo not drawn) [Compound 142], the IC50 with JJN-3 cells (Homo sapiens, JJN-3, 96 h) is more than 10000 nM; in assay [1] it was 42 nM; with KMS12-BM cells (Homo sapiens, KMS-12-BM, 96 h), approximately 9770 nM.
As to `Cc1cc(Nc2nccc(-c3cc(C#N)c4c(c3)[C@@](C)(CO)CN4)n2)n(CC2CCCCO2)n1` (single isomer, unassigned) [Compound 69], the IC50 in the assay on JJN-3 cells was 78 nM; in assay [1], 5.8 nM; in the assay with KMS12-BM cells it was more than 10000 nM.
